Structures are written as SMILES. The source made the active and inactive calls. No cut-off for these calls is given here.

This assay relates to Rattus norvegicus. The experiment in a line: Antiinflammatory activity in Lewis rat assessed as inhibition of TPA-induced ear edema. The class given is functional, organism-based.

Regarding `Cc1coc2c1[C@@H](OCC(C)C)[C@]1(C)[C@@H](C)CCC[C@H]1C2=O`, the result was inactive.
On to `C/C(=C\O[C@@H]1O[C@H](CO)[C@@H](O)[C@H](O)[C@H]1O)[C@@H]1C[C@@]2(C)C(=CC1=O)CC[C@H](O)[C@@H]2C`, for which the outcome was inactive.
The result for `C/C(=C\O[C@@H]1O[C@H](CO)[C@@H](O)[C@H](O)[C@H]1O)[C@@H]1C[C@@]2(C)C(=CC1=O)CCC[C@@H]2C` reads “inactive”.
The result for `C[C@H]1C[C@@H](O)C[C@H]2C(=O)c3occ(CO)c3[C@@H](O)[C@]12C` reads “inactive”; that for `CC1=C([C@H]2OC(=O)[C@@H]3CCC[C@H](C)[C@@]23C)C(=O)OC1`, “inactive”.
Next, `C/C(=C\O[C@@H]1O[C@H](CO)[C@@H](O)[C@H](O)[C@H]1O)[C@@H]1C[C@@]2(C)C(=CC1=O)CC[C@@H](O)[C@@H]2C`: “inactive”.
As for `C/C(=C\O[C@@H]1O[C@H](CO)[C@@H](O)[C@H](O)[C@H]1O)[C@@H]1C[C@@]2(C)C(=CC1=O)[C@H](O)CC[C@@H]2C`, the result was inactive.
Next, `Cc1coc2c1[C@@H](OCC(C)C)[C@]1(C)[C@@H](C)CC[C@H]3O[C@]31C2=O`: “inactive”; `CC1=C([C@@H]2OC(=O)[C@@H]3CCC[C@H](C)[C@]32C)C(=O)OC1`: “inactive”.
